# Measured values as given in patent US10271734B2, “Photoacoustic apparatus” (CANON KABUSHIKI KAISHA, priority 2015, dated 2019).
# How the values were obtained:
# [1] = J Clin Invest., 1960 April, 39(4): p. 592-600; cited from earlier work
# [2] = Temporal change in blood ICG concentration after tail vein injection into a nude mouse (FIG. 2); assay type: in vivo; conditions: ICG 20 nanomoles
# Method: FIG. 2 is a diagram illustrating a temporal change in the concentration of the contrast agent 1012 in the blood when ICG (20 nanomoles) which is the contrast agent 1012 was injected into a tail vein of a nude mouse. The vertical axis of FIG. 2 represents the blood ICG concentration and the horizontal axis represents the time elapsed after the contrast agent 1012 was injected to the nude mouse.
compound,measurement,setting,value
"CC1(C)C(/C=C/C=C/C=C/C=C2\N(CCCCS(=O)(=O)O)c3ccc4ccccc4c3C2(C)C)=[N+](CCCCS(=O)(=O)[O-])c2ccc3ccccc3c21 [ICG, Indocyanine green]",half-life of ICG in the blood,[1],approximately 3 minutes
same,time after injection within which the concentration of ICG present in the blood decreases to a half or smaller,[2],≤ 10 min
